Data on three molecules can be found in patent publication US20090011057A1, “FORMULATIONS AND METHODS FOR INHIBITING ANAEROBES, GRAM NEGATIVE BACTERIA, PROTOZOA AND OTHER MICROBIAL GROWTH WITH MORINDA CITRIFOLIA L. ENHANCED FORMULATIONS” (priority 2007, published 2009).

In brackets after ≈: the same amount, converted by molar mass.

Common to all, as to format: cell-based
For assay [1], the system named is Actinomyces viscosus (ATCC 15987). Description: Anti-infective in vitro assay, growth inhibition (turbidity). As to conditions: ATCC15987, read-out: Reference Compound, Concurrent (MIC). The procedure: (§1) In a preliminary investigations the potential usage of the M. citrifolia Noni fruit juice on bacterial species and various protozoan species, which are known to cause economic downfalls in humans and livestock industries were assessed.
(§2) Method employed in this study have been adapted from the scientific literature to maximize reliability and reproducibility. Reference standards were run as an integral part of each assay to ensure the validity of the results obtained. Materials utilized are described in the following charts.

For assay [2], the system named is Salmonella typhimurium (ATCC 13311). The description is as above. As to conditions: Salmonella typhimuium (ATCC 13311). On the procedure: as §1, §2
Assay [3] deals with Trichomonas foetus (Br. M. Strain). The assay can be described thus: Anti-infective in vitro assay, inhibition of growth examined. The settings on record: Tritrichomonas foetus, read-out: Reference Compound, Concurrent (MIC). On the procedure: as §1, §2

As for `CC1(C)S[C@@H]2[C@H](NC(=O)[C@H](N)c3ccccc3)C(=O)N2[C@H]1C(=O)O` [Ampicillin], in assay [1], the MIC – broadly, the lowest concentration that inhibits growth of the organism – stood at 0.03 µg/mL (≈ 0.0859 µM).
In assay [2], Gentamicin gave an MIC of 0.3 µg/mL.
In the case of `Cc1ncc([N+](=O)[O-])n1CCO` [Metronidazole], the MIC in assay [3] came to 3 µg/mL (≈ 17.5 µM).
